In the kinase profiling compilation of Christmann-Franck et al. (2016):
One block for each compound: values may come before it.

Columns and labels:
Test in all cases: radiometric filter-binding kinase assay
LCK (mouse) = conditions: accession and sequence are those of the human protein
PAK7 (human) = PAK7 (human) (UniProt Q9P286)
STK3 (human) = STK3 (human) (UniProt Q13188)
PRKCZ (human) = PRKCZ (human) (UniProt Q05513)
AURKA (human) = AURKA (human) (UniProt O14965)
EEF2K (human) = EEF2K (human) (UniProt O00418)
PKN2 (human) = PKN2 (human) (UniProt Q16513)
GSK3B (human) = GSK3B (human) (UniProt P49841)
NUAK1 (human) = NUAK1 (human) (UniProt O60285)
MARK3 (human) = MARK3 (human) (UniProt P27448)
EPHA4 (human) = EPHA4 (human) (UniProt P54764)
[1] = system: AKT1 (human), P31749 [S473D]
YES1 (human) = YES1 (human) (UniProt P07947)
Chain of YES1 (human) (P07947 whole entry, looked up): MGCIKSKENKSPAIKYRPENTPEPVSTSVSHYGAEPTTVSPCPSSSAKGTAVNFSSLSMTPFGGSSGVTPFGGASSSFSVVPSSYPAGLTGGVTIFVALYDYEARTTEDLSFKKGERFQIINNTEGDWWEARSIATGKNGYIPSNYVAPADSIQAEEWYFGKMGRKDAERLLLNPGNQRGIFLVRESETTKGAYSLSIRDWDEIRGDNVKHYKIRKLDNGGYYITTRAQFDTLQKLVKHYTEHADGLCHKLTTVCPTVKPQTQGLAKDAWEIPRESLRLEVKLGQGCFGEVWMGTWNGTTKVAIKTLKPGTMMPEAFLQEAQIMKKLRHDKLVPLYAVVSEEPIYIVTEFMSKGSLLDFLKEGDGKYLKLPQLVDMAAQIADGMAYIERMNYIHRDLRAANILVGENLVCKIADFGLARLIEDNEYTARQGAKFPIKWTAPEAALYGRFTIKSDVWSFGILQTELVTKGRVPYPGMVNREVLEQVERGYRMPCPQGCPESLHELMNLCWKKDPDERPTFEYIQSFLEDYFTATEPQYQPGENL

[2] = target: STK11 CAB39 STRADA (human) (UniProt Q9Y376+Q7RTN6+Q15831)
Chain of STK11 CAB39 STRADA (human) (Q15831 whole entry, looked up): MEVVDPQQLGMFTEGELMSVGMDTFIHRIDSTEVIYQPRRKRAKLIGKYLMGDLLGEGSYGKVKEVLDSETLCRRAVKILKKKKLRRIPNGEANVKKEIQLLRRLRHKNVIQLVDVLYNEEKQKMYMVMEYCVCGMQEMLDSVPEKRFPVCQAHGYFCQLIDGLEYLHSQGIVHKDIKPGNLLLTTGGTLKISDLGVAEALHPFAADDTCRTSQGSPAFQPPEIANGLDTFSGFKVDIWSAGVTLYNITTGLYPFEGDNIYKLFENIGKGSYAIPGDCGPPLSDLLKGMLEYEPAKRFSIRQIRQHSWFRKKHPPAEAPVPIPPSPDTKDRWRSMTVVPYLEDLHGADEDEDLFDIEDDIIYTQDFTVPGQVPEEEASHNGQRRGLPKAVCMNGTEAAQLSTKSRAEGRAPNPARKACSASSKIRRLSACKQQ
Chain of STK11 CAB39 STRADA (human) (Q7RTN6 whole entry, looked up): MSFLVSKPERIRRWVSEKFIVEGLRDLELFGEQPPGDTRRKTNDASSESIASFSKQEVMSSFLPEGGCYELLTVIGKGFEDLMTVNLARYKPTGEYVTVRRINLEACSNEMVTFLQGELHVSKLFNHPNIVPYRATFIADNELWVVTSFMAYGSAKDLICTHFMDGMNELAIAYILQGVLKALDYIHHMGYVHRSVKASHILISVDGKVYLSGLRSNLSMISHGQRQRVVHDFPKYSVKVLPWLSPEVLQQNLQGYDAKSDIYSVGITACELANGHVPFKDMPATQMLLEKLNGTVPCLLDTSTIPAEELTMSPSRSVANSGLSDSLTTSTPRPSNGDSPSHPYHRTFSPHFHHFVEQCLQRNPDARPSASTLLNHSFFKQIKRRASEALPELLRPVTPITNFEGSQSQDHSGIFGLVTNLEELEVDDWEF
Chain of STK11 CAB39 STRADA (human) (Q9Y376 whole entry, looked up): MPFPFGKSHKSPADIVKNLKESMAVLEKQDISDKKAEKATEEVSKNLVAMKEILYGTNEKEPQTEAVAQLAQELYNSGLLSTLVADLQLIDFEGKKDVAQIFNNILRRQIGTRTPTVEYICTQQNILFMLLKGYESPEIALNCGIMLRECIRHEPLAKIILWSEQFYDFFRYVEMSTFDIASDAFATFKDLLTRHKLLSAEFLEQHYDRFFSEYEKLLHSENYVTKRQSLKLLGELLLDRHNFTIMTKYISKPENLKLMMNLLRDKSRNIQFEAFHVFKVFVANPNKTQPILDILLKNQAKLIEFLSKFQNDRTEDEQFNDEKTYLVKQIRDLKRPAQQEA

JAK2 JH1 JH2 (human) = JAK2 JH1 JH2 (human) (UniProt O60674)
CHEK1 (human) = CHEK1 (human) (UniProt O14757)
CHEK2 (human) = CHEK2 (human) (UniProt O96017)
MAPK1 (human) = MAPK1 (human) (UniProt P28482)
PIM1 (human) = PIM1 (human) (UniProt P11309)
DAPK1 (human) = DAPK1 (human) (UniProt P53355)
[3] = target: PRKAA1 PRKAB2 PRKAG1 (human) (UniProt O43741+Q13131+P54619)
Chain of PRKAA1 PRKAB2 PRKAG1 (human) (O43741 whole entry, looked up): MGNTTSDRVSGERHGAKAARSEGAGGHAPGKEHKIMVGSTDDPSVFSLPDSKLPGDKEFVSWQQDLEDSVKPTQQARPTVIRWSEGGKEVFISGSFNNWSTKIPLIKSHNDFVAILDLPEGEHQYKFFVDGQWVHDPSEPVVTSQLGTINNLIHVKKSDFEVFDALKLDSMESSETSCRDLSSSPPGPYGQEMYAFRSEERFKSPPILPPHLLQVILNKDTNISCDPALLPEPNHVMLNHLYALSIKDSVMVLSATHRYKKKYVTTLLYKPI
Chain of PRKAA1 PRKAB2 PRKAG1 (human) (P54619 whole entry, looked up): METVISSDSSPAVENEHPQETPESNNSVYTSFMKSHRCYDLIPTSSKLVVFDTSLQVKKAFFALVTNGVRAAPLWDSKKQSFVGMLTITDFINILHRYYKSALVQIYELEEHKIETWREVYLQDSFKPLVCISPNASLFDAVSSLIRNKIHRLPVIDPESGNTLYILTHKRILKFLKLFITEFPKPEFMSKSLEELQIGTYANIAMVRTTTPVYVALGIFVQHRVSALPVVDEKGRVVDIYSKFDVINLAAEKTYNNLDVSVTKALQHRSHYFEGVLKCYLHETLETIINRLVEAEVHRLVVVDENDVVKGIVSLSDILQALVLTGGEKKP
Chain of PRKAA1 PRKAB2 PRKAG1 (human) (Q13131 whole entry, looked up): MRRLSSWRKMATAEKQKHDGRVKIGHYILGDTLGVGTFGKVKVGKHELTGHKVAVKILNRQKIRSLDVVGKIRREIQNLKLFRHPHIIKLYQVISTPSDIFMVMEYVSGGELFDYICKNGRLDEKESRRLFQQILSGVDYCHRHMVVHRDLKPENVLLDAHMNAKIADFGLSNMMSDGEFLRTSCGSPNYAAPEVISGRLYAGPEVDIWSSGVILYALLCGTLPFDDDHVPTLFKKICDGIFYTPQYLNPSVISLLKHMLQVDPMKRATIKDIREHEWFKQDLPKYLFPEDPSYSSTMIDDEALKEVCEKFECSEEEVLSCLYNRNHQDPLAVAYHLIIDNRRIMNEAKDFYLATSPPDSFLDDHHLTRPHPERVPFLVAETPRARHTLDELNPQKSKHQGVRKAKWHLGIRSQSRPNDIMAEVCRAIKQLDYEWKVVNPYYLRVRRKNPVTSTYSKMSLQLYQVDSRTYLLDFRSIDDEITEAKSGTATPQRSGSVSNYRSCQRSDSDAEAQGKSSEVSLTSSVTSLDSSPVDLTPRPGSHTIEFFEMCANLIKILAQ

MYLK (human) = MYLK (human) (UniProt Q15746)
IGF1R (human) = IGF1R (human) (UniProt P08069)
MST4 (human) = MST4 (human) (UniProt Q9P289)
MAPK14 (human) = MAPK14 (human) (UniProt Q16539)
Chain of MAPK14 (human) (Q16539 whole entry, looked up): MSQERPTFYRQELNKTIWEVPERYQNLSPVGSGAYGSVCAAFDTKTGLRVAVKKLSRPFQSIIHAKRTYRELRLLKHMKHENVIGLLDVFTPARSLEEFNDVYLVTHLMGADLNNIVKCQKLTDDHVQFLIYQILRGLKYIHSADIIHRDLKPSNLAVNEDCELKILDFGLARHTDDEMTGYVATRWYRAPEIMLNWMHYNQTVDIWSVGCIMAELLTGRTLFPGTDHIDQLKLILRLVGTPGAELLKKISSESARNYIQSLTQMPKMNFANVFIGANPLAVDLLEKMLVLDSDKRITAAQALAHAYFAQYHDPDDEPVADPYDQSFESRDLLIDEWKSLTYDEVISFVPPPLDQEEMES

MAPK15 (human) = MAPK15 (human) (UniProt Q8TD08)
EPHB1 (human) = EPHB1 (human) (UniProt P54762)
MARK1 (human) = MARK1 (human) (UniProt Q9P0L2)
PLK1 (human) = PLK1 (human) (UniProt P53350)
PAK6 (human) = PAK6 (human) (UniProt Q9NQU5)
HIPK3 (human) = HIPK3 (human) (UniProt Q9H422)
[4] = system: PAK2 (human), Q13177 [T402E]
Chain of PAK2 (human), Q13177 [T402E] (Q13177 whole entry T402E, looked up): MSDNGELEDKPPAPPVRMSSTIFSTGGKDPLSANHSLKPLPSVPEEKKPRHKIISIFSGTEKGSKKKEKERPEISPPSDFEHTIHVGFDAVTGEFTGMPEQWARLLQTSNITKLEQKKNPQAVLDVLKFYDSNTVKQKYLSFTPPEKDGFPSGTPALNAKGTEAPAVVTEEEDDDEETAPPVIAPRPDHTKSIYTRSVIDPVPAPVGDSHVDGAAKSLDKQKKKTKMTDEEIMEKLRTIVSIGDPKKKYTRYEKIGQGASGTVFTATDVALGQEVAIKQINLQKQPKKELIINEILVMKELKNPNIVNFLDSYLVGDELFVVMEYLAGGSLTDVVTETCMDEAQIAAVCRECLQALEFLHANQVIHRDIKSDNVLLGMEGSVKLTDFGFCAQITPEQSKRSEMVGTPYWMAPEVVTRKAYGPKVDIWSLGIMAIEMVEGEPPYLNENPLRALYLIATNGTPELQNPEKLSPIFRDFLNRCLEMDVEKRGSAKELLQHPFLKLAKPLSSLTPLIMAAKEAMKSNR

HIPK2 (human) = HIPK2 (human) (UniProt Q9H2X6)
Chain of HIPK2 (human) (Q9H2X6 whole entry, looked up): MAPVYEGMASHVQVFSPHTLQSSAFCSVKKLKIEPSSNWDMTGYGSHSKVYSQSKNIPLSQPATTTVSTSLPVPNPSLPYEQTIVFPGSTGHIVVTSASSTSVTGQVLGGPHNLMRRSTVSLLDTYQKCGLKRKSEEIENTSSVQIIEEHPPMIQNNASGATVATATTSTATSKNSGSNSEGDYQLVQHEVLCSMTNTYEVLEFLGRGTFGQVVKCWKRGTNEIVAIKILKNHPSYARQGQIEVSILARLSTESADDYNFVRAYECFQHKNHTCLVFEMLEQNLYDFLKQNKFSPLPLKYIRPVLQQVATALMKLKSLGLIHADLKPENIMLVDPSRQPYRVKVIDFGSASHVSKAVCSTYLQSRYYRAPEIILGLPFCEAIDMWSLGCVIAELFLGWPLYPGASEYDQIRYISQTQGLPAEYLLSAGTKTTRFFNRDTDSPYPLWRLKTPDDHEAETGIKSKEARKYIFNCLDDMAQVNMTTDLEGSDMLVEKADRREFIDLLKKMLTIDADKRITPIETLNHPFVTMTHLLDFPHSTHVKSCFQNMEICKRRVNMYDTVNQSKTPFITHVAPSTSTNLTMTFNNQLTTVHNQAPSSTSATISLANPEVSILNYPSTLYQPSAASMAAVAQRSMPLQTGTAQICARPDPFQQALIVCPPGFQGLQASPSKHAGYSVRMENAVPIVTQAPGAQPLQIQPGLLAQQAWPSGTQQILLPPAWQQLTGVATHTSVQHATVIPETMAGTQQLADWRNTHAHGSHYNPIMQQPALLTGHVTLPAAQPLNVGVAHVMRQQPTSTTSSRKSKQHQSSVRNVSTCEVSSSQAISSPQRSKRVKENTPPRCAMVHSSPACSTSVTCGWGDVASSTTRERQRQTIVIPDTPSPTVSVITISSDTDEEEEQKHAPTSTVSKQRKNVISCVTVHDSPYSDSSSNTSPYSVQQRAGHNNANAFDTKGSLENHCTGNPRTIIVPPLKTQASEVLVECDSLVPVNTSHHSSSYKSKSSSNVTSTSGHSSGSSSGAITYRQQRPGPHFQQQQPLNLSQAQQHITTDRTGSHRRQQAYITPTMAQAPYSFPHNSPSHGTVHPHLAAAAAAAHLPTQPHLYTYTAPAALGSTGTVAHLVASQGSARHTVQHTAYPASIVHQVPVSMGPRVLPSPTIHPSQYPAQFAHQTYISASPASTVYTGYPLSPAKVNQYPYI

PRKCA (human) = PRKCA (human) (UniProt P17252)
MARK2 (human) = MARK2 (human) (UniProt Q7KZI7)

residual activity (LCK (mouse); compound 10.0 µM): 94%
residual activity (PAK7 (human); compound 10.0 µM): 103%
residual activity (STK3 (human); compound 10.0 µM): 76%
residual activity (PRKCZ (human); compound 10.0 µM): 95%
residual activity (AURKA (human); compound 10.0 µM): 54%
residual activity (AURKA (human); compound 100.0 µM): 2%
residual activity (EEF2K (human); compound 10.0 µM): 77%
residual activity (PKN2 (human); compound 10.0 µM): 76%
residual activity (GSK3B (human); compound 10.0 µM): 48%
residual activity (GSK3B (human); compound 100.0 µM): 19%
residual activity (NUAK1 (human); compound 10.0 µM): 42%
residual activity (NUAK1 (human); compound 100.0 µM): 11%
residual activity (MARK3 (human); compound 10.0 µM): 84%
residual activity (EPHA4 (human); compound 10.0 µM): 106%
residual activity ([1]; compound 10.0 µM): 91%
residual activity (YES1 (human); compound 10.0 µM): 77%
residual activity ([2]; compound 10.0 µM): 64%
residual activity (JAK2 JH1 JH2 (human); compound 10.0 µM): 63%
residual activity (CHEK1 (human); compound 10.0 µM): 90%
residual activity (CHEK2 (human); compound 10.0 µM): 57%
residual activity (CHEK2 (human); compound 100.0 µM): 10%
residual activity (MAPK1 (human); compound 10.0 µM): 93%
residual activity (MAPK1 (human); compound 100.0 µM): 95%
residual activity (PIM1 (human); compound 10.0 µM): 22%
residual activity (PIM1 (human); compound 100.0 µM): 6%
residual activity (DAPK1 (human); compound 10.0 µM): 71%
residual activity ([3]; compound 10.0 µM): 83%
residual activity (MYLK (human); compound 10.0 µM): 68%
residual activity (IGF1R (human); compound 10.0 µM): 70%
residual activity (MST4 (human); compound 10.0 µM): 96%
residual activity (MAPK14 (human); compound 10.0 µM): 91%
residual activity (MAPK14 (human); compound 100.0 µM): 78%
residual activity (EPHB1 (human); compound 10.0 µM): 93%
residual activity (MARK1 (human); compound 10.0 µM): 82%
residual activity (PLK1 (human); compound 10.0 µM): 35%
residual activity (PLK1 (human); compound 100.0 µM): 22%
residual activity (PAK6 (human); compound 10.0 µM): 84%
residual activity (HIPK3 (human); compound 10.0 µM): 60%
residual activity ([4]; compound 10.0 µM): 89%
residual activity (HIPK2 (human); compound 10.0 µM): 61%
residual activity (HIPK2 (human); compound 100.0 µM): 7%
residual activity (PRKCA (human); compound 10.0 µM): 67%
residual activity (MARK2 (human); compound 10.0 µM): 48%
residual activity (MARK2 (human); compound 100.0 µM): 71%
SMILES: Cc1nc(N)sc1-c1csc(Nc2cccnc2)n1
residual activity (MAPK15 (human); compound 10.0 µM): 43%

residual activity (LCK (mouse); compound 1.0 µM): 95%
residual activity (LCK (mouse); compound 10.0 µM): 90%
residual activity (PAK7 (human); compound 1.0 µM): 80%
residual activity (PAK7 (human); compound 10.0 µM): 41%
residual activity (STK3 (human); compound 1.0 µM): 40%
residual activity (STK3 (human); compound 10.0 µM): 29%
residual activity (PRKCZ (human); compound 1.0 µM): 93%
residual activity (PRKCZ (human); compound 10.0 µM): 89%
residual activity (AURKA (human); compound 1.0 µM): 40%
residual activity (AURKA (human); compound 10.0 µM): 6%
residual activity (EEF2K (human); compound 1.0 µM): 94%
residual activity (EEF2K (human); compound 10.0 µM): 96%
residual activity (PKN2 (human); compound 1.0 µM): 86%
residual activity (PKN2 (human); compound 10.0 µM): 64%
residual activity (GSK3B (human); compound 1.0 µM): 87%
residual activity (GSK3B (human); compound 10.0 µM): 51%
residual activity (NUAK1 (human); compound 1.0 µM): 38%
residual activity (NUAK1 (human); compound 10.0 µM): 21%
residual activity (MARK3 (human); compound 1.0 µM): 41%
residual activity (MARK3 (human); compound 10.0 µM): 14%
residual activity (EPHA4 (human); compound 1.0 µM): 84%
residual activity (EPHA4 (human); compound 10.0 µM): 66%
residual activity ([1]; compound 1.0 µM): 40%
residual activity ([1]; compound 10.0 µM): 10%
residual activity (YES1 (human); compound 1.0 µM): 71%
residual activity (YES1 (human); compound 10.0 µM): 33%
residual activity ([2]; compound 1.0 µM): 40%
residual activity ([2]; compound 10.0 µM): 18%
residual activity (JAK2 JH1 JH2 (human); compound 1.0 µM): 26%
residual activity (JAK2 JH1 JH2 (human); compound 10.0 µM): 6%
residual activity (CHEK1 (human); compound 1.0 µM): 59%
residual activity (CHEK1 (human); compound 10.0 µM): 26%
residual activity (CHEK2 (human); compound 1.0 µM): 21%
residual activity (CHEK2 (human); compound 10.0 µM): 5%
residual activity (MAPK1 (human); compound 1.0 µM): 83%
residual activity (MAPK1 (human); compound 10.0 µM): 62%
residual activity (PIM1 (human); compound 1.0 µM): 43%
residual activity (PIM1 (human); compound 10.0 µM): 15%
residual activity (DAPK1 (human); compound 1.0 µM): 50%
residual activity (DAPK1 (human); compound 10.0 µM): 37%
residual activity ([3]; compound 1.0 µM): 70%
residual activity ([3]; compound 10.0 µM): 31%
residual activity (MYLK (human); compound 1.0 µM): 26%
residual activity (MYLK (human); compound 10.0 µM): 11%
residual activity (IGF1R (human); compound 1.0 µM): 55%
residual activity (IGF1R (human); compound 10.0 µM): 11%
residual activity (MST4 (human); compound 1.0 µM): 58%
residual activity (MST4 (human); compound 10.0 µM): 17%
residual activity (MAPK14 (human); compound 1.0 µM): 94%
residual activity (MAPK14 (human); compound 10.0 µM): 86%
residual activity (EPHB1 (human); compound 1.0 µM): 108%
residual activity (EPHB1 (human); compound 10.0 µM): 70%
residual activity (MARK1 (human); compound 1.0 µM): 68%
residual activity (MARK1 (human); compound 10.0 µM): 29%
residual activity (PLK1 (human); compound 1.0 µM): 113%
residual activity (PLK1 (human); compound 10.0 µM): 110%
residual activity (PAK6 (human); compound 1.0 µM): 91%
residual activity (PAK6 (human); compound 10.0 µM): 54%
residual activity (HIPK3 (human); compound 1.0 µM): 90%
residual activity (HIPK3 (human); compound 10.0 µM): 33%
residual activity ([4]; compound 1.0 µM): 92%
residual activity ([4]; compound 10.0 µM): 68%
residual activity (HIPK2 (human); compound 1.0 µM): 31%
residual activity (HIPK2 (human); compound 10.0 µM): 11%
residual activity (PRKCA (human); compound 1.0 µM): 78%
residual activity (PRKCA (human); compound 10.0 µM): 27%
residual activity (MARK2 (human); compound 1.0 µM): 62%
residual activity (MARK2 (human); compound 10.0 µM): 43%
SMILES: O=C1c2ccccc2-c2n[nH]c3cccc1c23
residual activity (MAPK15 (human); compound 1.0 µM): 39%
residual activity (MAPK15 (human); compound 10.0 µM): 6%
